# Test results as given in PubChem BioAssay AID1996.
# Settings: buffer; pH 7.4; 200.0 µM
row,Structure (SMILES),solubility kinetic
1,COc1ccc(/C=C/C(=O)N2CC(C)OC(C)C2)cc1OC (centres undefined),45.4 µg/mL
2,O=C(CN1CCOCC1)NCCc1ccccc1,> 37.2 µg/mL
3,CCOc1ccc(OCCSc2nc(N)cc(=O)[nH]2)cc1,4.1 µg/mL
4,CC(=O)Nc1ccc(NC(=O)COc2ncnc3ccccc23)cc1,> 50.5 µg/mL
5,O=C(NC(=S)Nc1cccc(-c2ccc(CO)o2)c1)c1cccs1,4.7 µg/mL
6,CC(NC(=O)COC(=O)C12CC3CC(CC(O)(C3)C1)C2)c1ccccc1 (centres undefined),> 53.6 µg/mL
7,O=S(=O)(c1ccccc1)N1CC=C(c2ccccc2)CC1,1.1 µg/mL
8,Cc1ccc(CNC(=O)CSCc2ccccc2F)cc1,43.1 µg/mL
9,Nc1nc2ccccc2n1Cc1ccc(Cl)c(Cl)c1,33.1 µg/mL
10,COC(=O)c1sccc1NC(=O)Nc1ccc(F)cc1F,26.6 µg/mL
11,CCc1cccc(C)c1NC(=O)CCNC(=O)c1cccc(C)c1,> 48.7 µg/mL
12,O=C(NCc1ccccc1F)Nc1ccc([N+](=O)[O-])cc1,1.3 µg/mL
13,CC(=O)NCCc1nc2cc(NS(=O)(=O)c3ccccc3)ccc2n1C,> 55.9 µg/mL
14,Oc1ccc(Br)cc1CNc1cnc2ccccc2c1,1 µg/mL
15,CCOC(=O)Cc1csc(NC(=O)c2cc(=O)c3ccccc3o2)n1,51.8 µg/mL
16,CC(NC(=O)c1cccc(S(=O)(=O)N(C)C)c1)C1CC2CCC1C2 (centres undefined),15.5 µg/mL
17,CN(c1ccccc1)S(=O)(=O)c1cccc(NC(=O)C2CCCO2)c1 (centres undefined),> 54.1 µg/mL
18,COC(=O)c1ccccc1NC(=O)Nc1ccc(C)cn1,> 42.8 µg/mL
19,O=C(COC(=O)c1cccnc1Cl)NCCc1ccccc1,> 47.8 µg/mL
20,CC(=O)NC(c1ccc(Cl)cc1Cl)c1ccc2cccnc2c1O (centres undefined),3 µg/mL
21,COc1cc(C)cc(CN2CC=C(c3ccccc3)CC2)c1O,12.8 µg/mL
22,O=C(Nc1cc(-c2ccccc2)cs1)c1ccco1,4.7 µg/mL
23,NC(=O)COC(=O)CNC(=O)c1sc2ccccc2c1Cl,44.8 µg/mL
24,COc1cc2[nH]c(=S)nc(NCc3cccnc3)c2cc1OC,12.2 µg/mL

row,Structure (SMILES),solubility kinetic
1,CCCCNC1c2ccccc2C(=O)N1Cc1ccccc1.Cl (centres undefined),47.5 µg/mL
2,COc1ccc(C)cc1NC(=O)C1CC1c1ccccc1 (centres undefined),4.7 µg/mL
3,Cl.Clc1cccc(CNCCCSc2ncccn2)c1,> 49.5 µg/mL
4,Cc1nc2ccccc2n1Cc1ccccc1Br,26 µg/mL
5,Cc1ccnc(NC(=O)c2cccc3ccccc23)c1,6.1 µg/mL
6,CC(=O)N1CCN(C(=O)c2cccc(S(=O)(=O)N3c4ccccc4CC3C)c2)CC1 (centres undefined),> 64.1 µg/mL
7,O=C1CC2C(=O)NCCN2C(=NC(=O)c2ccc(Cl)cc2)N1 (centres undefined),23.5 µg/mL
8,O=C(COC(=O)c1cccc([N+](=O)[O-])c1)NCc1cccs1,36 µg/mL
9,OC1CCN(Cc2cccc3ccccc23)CC1,29.3 µg/mL
10,CCOC(=O)c1ccc(NC(=O)NC2CC3CCC(C2)N3)cc1 (centres undefined),43.5 µg/mL
11,Cc1nn(-c2ccccc2)c(-c2ccccc2[N+](=O)[O-])c1C(=O)O,> 48.5 µg/mL
12,COc1ccc(CNC(=O)CC(C)c2ccccc2)cc1 (centres undefined),36.9 µg/mL
13,CC1CCCC(NC(=O)COC(=O)c2ccc(Br)o2)C1C (centres undefined),8.2 µg/mL
14,Cc1ccc(C)c(S(=O)(=O)NCCCc2ccccc2)c1,14.2 µg/mL
15,COc1ccccc1OC(C)C(=O)N1CC(=O)Nc2ccccc21 (centres undefined),> 49 µg/mL
16,Clc1ccccc1-c1nc(-c2ccncc2)no1,7 µg/mL
17,CCc1ccccc1OCC(=O)OCC(=O)N1CC(=O)Nc2ccccc21,35.7 µg/mL
18,O=C(/C=C/c1ccccc1[N+](=O)[O-])Nc1cccc(S(=O)(=O)NC2=NCCCCC2)c1,14.4 µg/mL
19,COC(=O)Cn1c(N2CCCC2)nc2c1c(=O)n(C)c(=O)n2C,> 48.2 µg/mL
20,COCCCNc1nc(N)c([N+](=O)[O-])c(NCc2ccccc2)n1,7.4 µg/mL
21,Cc1ccc2nc(Cl)c(/C=C/C(=O)c3ccco3)cc2c1,15.4 µg/mL
22,Cn1c(N)c(C(=O)COC(=O)CNC(=O)c2ccccc2)c(=O)n(C)c1=O,> 56.2 µg/mL
23,Cc1nc2c(C)c(C)c(C)c(C)c2nc1C,< 0.2 µg/mL
24,COC(=O)c1sccc1NC(=O)Nc1cccc([N+](=O)[O-])c1,5.7 µg/mL

row,Structure (SMILES),solubility kinetic
1,O=C(Nc1cccc(S(=O)(=O)NC2=NCCC2)c1)c1ccc(F)cc1,> 54.2 µg/mL
2,COc1ccc(C(=O)OCC(=O)N2CCc3ccccc32)cc1S(=O)(=O)N1CCOCC1,24.8 µg/mL
3,O=C(Nc1ccccc1F)C1CCCC1,23.4 µg/mL
4,COc1ccc(CNCC(O)COc2ccc(C)cc2[N+](=O)[O-])cc1 (centres undefined),> 52 µg/mL
5,C=CCn1cc(C=C2C(=O)NC(=O)NC2=O)c2ccccc21,3.6 µg/mL
6,Cc1nc(NC(=O)c2cnccn2)ccc1Br,7.8 µg/mL
7,Fc1ccccc1NC(=S)NCCc1cccc(Cl)c1,36.7 µg/mL
8,c1ccc(Oc2nc(-c3cccnc3)nc3ccccc23)cc1,0.7 µg/mL
9,CCC(CC)C(=O)c1c[nH]c(C(=O)OC)c1,> 33.5 µg/mL
10,O=C(NCC1CCCO1)c1ccc(NC(=O)c2cccc([N+](=O)[O-])c2)cc1 (centres undefined),3.5 µg/mL
11,CCC(C)n1c(O)c(C=NCCN2CCOCC2)c(=O)[nH]c1=S (centres undefined),> 51.1 µg/mL
12,COc1ccc(OC)c(S(=O)(=O)n2ccnc2C(C)C)c1,46.1 µg/mL
13,O=S(=O)(NCCN1CCCC1)c1ccc(Br)cc1,46.9 µg/mL
14,CC(=O)Nc1ccc(Oc2ccc3c(c2)C(=O)NC3=O)cc1,16.9 µg/mL
15,Cc1c(C(=O)C(=O)N2c3ccccc3CC2C)c2ccccc2n1C (centres undefined),1.6 µg/mL
16,O=C(CCN1C(=O)c2cccc3cccc(c23)C1=O)NCC1CCCO1 (centres undefined),> 52.9 µg/mL
17,CCCN1CN=C(NS(=O)(=O)c2ccc(C)cc2)NC1,> 44.5 µg/mL
18,O=C1Nc2ccccc2C(=O)N2CCCCC12 (centres undefined),19.3 µg/mL
19,CC1CC(C)CN(C(=O)c2ccc3ncsc3c2)C1 (centres undefined),> 41.2 µg/mL
20,O=C(COC(=O)c1ccc(Br)o1)Nc1cccc(S(=O)(=O)N2CCOCC2)c1,59.2 µg/mL
21,Cc1ccc(OCc2nc(-c3cccs3)no2)c([N+](=O)[O-])c1,0.9 µg/mL
22,O=C(NCc1ncc(C(F)(F)F)cc1Cl)Nc1ccccc1,3.1 µg/mL
23,NC(=O)C1(C(N)=O)OC1c1ccccc1 (centres undefined),> 30.9 µg/mL
24,CN(C(=O)c1ccc(NC(=O)c2ccco2)cc1)c1ccccc1,2.9 µg/mL

row,Structure (SMILES),solubility kinetic
1,CCOC(=O)N1CCN(Cc2nc(-c3cccs3)no2)CC1,44 µg/mL
2,COC(=O)c1ccc(CNC(=O)C23CC4CC(CC(C4)C2)C3)cc1,6.2 µg/mL
3,COc1ccc2nc(N/C(N)=N/S(C)(=O)=O)nc(C)c2c1,3.1 µg/mL
4,O=C(CSc1nc(O)c(Cc2ccccc2)c(=O)[nH]1)c1ccccc1,> 52.9 µg/mL
5,Cc1ccsc1/C=N/NC(=O)CNC(=O)c1ccco1,> 43.7 µg/mL
6,Cc1ccccc1CC(=O)Nc1cccnc1,> 33.9 µg/mL
7,Cl.O=C(NCCCn1ccnc1)c1ccc(F)cc1,> 42.6 µg/mL
8,O=C(NCc1ccccc1)c1cc[n+](Cc2ccccc2)cc1.[Cl-],49.7 µg/mL
9,COC(=O)c1c(C)[nH]c(C(=O)OCC(=O)NC(C)(C)C)c1C,> 46.6 µg/mL
10,C/C(=C\C(=O)c1ccc(Cl)cc1Cl)N(C)C,3.8 µg/mL
11,Cc1ccc(S(=O)(=O)CCSc2nccn2C)cc1,> 44.5 µg/mL
12,O=C(O)C1CCN(C(=O)Cc2ccccc2)CC1,> 37.1 µg/mL
13,Nc1ccccc1SCC(=O)Nc1ccc2c(c1)OCO2,> 45.4 µg/mL
14,CCOc1ccc(NC(=S)NCc2cccnc2)cc1,> 43.1 µg/mL
15,O=C(O)CC1(CC(=O)Nc2ccc3ccccc3n2)CCCCC1,> 49 µg/mL
16,O=C(NC1CCSc2ccccc21)c1ccccc1F (centres undefined),12.4 µg/mL
17,O=C(Cc1cccs1)Nc1nc(-c2cccnc2)cs1,5.3 µg/mL
18,O=C(COC(=O)COc1ccccc1)Nc1ccc(Br)cc1F,12.3 µg/mL
19,CCOC(=O)c1c(C)n(Cc2ccc(F)cc2)c2ccc(O)cc12,< 0.7 µg/mL
20,COc1cc(C)c(C)cc1S(=O)(=O)N1CCCc2ccccc21,4.9 µg/mL
21,COc1ccc2c(c1OC)C(=O)N1C2SC(C)(C)[C@H]1C(=O)NC1CC1 (some centres undefined),> 54.4 µg/mL
22,[O-][n+]1ccccc1/C=C/c1ccccc1,> 29.6 µg/mL
23,O=C1CN(C(=O)c2ccc(F)cc2)c2ccccc2N1,> 40.5 µg/mL
24,O=C1OC(c2ccc(F)cc2)=N/C1=C\c1ccc(Br)o1,9.6 µg/mL

row,Structure (SMILES),solubility kinetic
1,Cc1cc(NC(=O)COC(=O)/C=C/c2ccc(C)o2)no1,1.8 µg/mL
2,CCCCNC(=O)NS(=O)(=O)c1ccc(C)cc1,> 40.6 µg/mL
3,Brc1c(NC2=NCCN2)ccc2nccnc12,11.2 µg/mL
4,Cc1ccc(C)c(C(C)NC(=O)C2CCCO2)c1 (centres undefined),36.7 µg/mL
5,COC(=O)c1ccc(NC(=O)CCC(=O)c2ccc(F)cc2)cc1,< 0.7 µg/mL
6,CC1CCc2c(sc(NC(=O)/C=C/c3cccs3)c2C(=O)O)C1 (centres undefined),> 52.1 µg/mL
7,COc1ccc(N=Cc2c(O)n(C)c(=O)[nH]c2=O)cc1,2.2 µg/mL
8,CC(C)c1ccc(N=C(N)N=C(N)N)cc1.Cl,> 38.4 µg/mL
9,CC(C)(C)c1ccc(N2C(=O)CC(c3ccccc3)C2=O)cc1 (centres undefined),< 0.7 µg/mL
10,O=C(c1ccccc1)C1CCN(C(=O)c2ccco2)CC1,41.6 µg/mL
11,O=C(Nc1nccs1)C1CCN(S(=O)(=O)c2ccccc2)CC1,43.7 µg/mL
12,O=C(NC1=NCCS1)c1ccccc1Cl,> 36.1 µg/mL
13,COCCN(C/C=C/c1ccccc1)C/C=C/c1ccccc1,10.1 µg/mL
14,Cc1ccc(OCC2Cn3c(nc4c3c(=O)[nH]c(=O)n4C)O2)cc1C (centres undefined),3.4 µg/mL
15,Cc1cc(SCC(=O)NCC2CCCO2)nc2ccccc12 (centres undefined),> 47.5 µg/mL
16,CC1CCCCC1NC(=O)COC(=O)c1ccc2c(=O)n3c(nc2c1)CCC3 (centres undefined),22.2 µg/mL
17,CSc1ncc(C(=O)Nc2cccc(C)c2C)c(C)n1,17 µg/mL
18,O=C(COC(=O)Cc1c[nH]c2ccccc12)Nc1cc(S(=O)(=O)N2CCOCC2)ccc1Cl,12.7 µg/mL
19,COc1ccc2nc(N(Cc3ccccc3)C(=O)CCNC(C)=O)sc2c1,3.3 µg/mL
20,CCc1c(C)nc(SC/C=C/c2ccccc2)[nH]c1=O,1.4 µg/mL
21,Cc1ccccc1CN(C)C(=O)COC(=O)c1ccc2[nH]c(C)c(C)c2c1,2.1 µg/mL
22,Cc1ccccc1NC(=O)NC1(C(=O)N2CCC(O)CC2)CCCCC1,44.1 µg/mL
23,COc1cc(OC)c(C2Nc3cccc4cccc(c34)N2)c(OC)c1,4.4 µg/mL
